Key:
Type in all cases: functional
Saccharomyces cerevisiae [1] = test: Percent inhibitory activity of 50 uM of compound against growth of Saccharomyces cerevisiae transfected with human topoisomerase-1 in medium containing galactose
Saccharomyces cerevisiae [2] = test: Percent inhibitory activity of 50 uM of compound against growth of Saccharomyces cerevisiae transfected with human topoisomerase-1 in medium containing raffinose
Saccharomyces cerevisiae [3] = test: Percent inhibitory activity of 100 uM of compound against growth of Saccharomyces cerevisiae transfected with human topoisomerase-1 in medium containing galactose
Saccharomyces cerevisiae [4] = test: Percent inhibitory activity of 100 uM of compound against growth of Saccharomyces cerevisiae transfected with human topoisomerase-1 in medium containing raffinose
Saccharomyces cerevisiae [5] = test: Percent inhibitory activity of 1 uM of compound against growth of Saccharomyces cerevisiae transfected with human topoisomerase-1 in medium containing galactose
Saccharomyces cerevisiae [6] = test: Percent inhibitory activity of 1 uM of compound against growth of Saccharomyces cerevisiae transfected with human topoisomerase-1 in medium containing raffinose
Saccharomyces cerevisiae [7] = test: Percent inhibitory activity of 10 uM of compound against growth of Saccharomyces cerevisiae transfected with human topoisomerase-1 in medium containing galactose
Saccharomyces cerevisiae [8] = test: Percent inhibitory activity of 10 uM of compound against growth of Saccharomyces cerevisiae transfected with human topoisomerase-1 in medium containing raffinose
Saccharomyces cerevisiae [9] = test: Percent inhibitory activity of 25 uM of compound against growth of Saccharomyces cerevisiae transfected with human topoisomerase-1 in medium containing galactose
Saccharomyces cerevisiae [10] = test: Percent inhibitory activity of 25 uM of compound against growth of Saccharomyces cerevisiae transfected with human topoisomerase-1 in medium containing raffinose
Saccharomyces cerevisiae [11] = test: Percent inhibitory activity of 5 uM of compound against growth of Saccharomyces cerevisiae transfected with human topoisomerase-1 in medium containing galactose
Saccharomyces cerevisiae [12] = test: Percent inhibitory activity of 5 uM of compound against growth of Saccharomyces cerevisiae transfected with human topoisomerase-1 in medium containing raffinose
Saccharomyces cerevisiae [13] = test: Percent inhibitory activity of 15 uM of compound against growth of Saccharomyces cerevisiae transfected with human topoisomerase-1 in medium containing galactose
Saccharomyces cerevisiae [14] = test: Percent inhibitory activity of 15 uM of compound against growth of Saccharomyces cerevisiae transfected with human topoisomerase-1 in medium containing raffinose
Saccharomyces cerevisiae [15] = test: Percent inhibitory activity of 0.75 uM of compound against growth of Saccharomyces cerevisiae transfected with human topoisomerase-1 in medium containing galactose
Saccharomyces cerevisiae [16] = test: Percent inhibitory activity of 0.75 uM of compound against growth of Saccharomyces cerevisiae transfected with human topoisomerase-1 in medium containing raffinose
Saccharomyces cerevisiae [17] = test: Percent inhibitory activity of 1.5 uM of compound against growth of Saccharomyces cerevisiae transfected with human topoisomerase-1 in medium containing galactose
Saccharomyces cerevisiae [18] = test: Percent inhibitory activity of 1.5 uM of compound against growth of Saccharomyces cerevisiae transfected with human topoisomerase-1 in medium containing raffinose
Saccharomyces cerevisiae [19] = test: Percent inhibitory activity of 0.5 uM of compound against growth of Saccharomyces cerevisiae transfected with human topoisomerase-1 in medium containing galactose
Saccharomyces cerevisiae [20] = test: Percent inhibitory activity of 0.5 uM of compound against growth of Saccharomyces cerevisiae transfected with human topoisomerase-1 in medium containing raffinose

Row | SMILES | Inhibition (Saccharomyces cerevisiae [1]) | Inhibition (Saccharomyces cerevisiae [2]) | Inhibition (Saccharomyces cerevisiae [5]) | Inhibition (Saccharomyces cerevisiae [6]) | Inhibition (Saccharomyces cerevisiae [7]) | Inhibition (Saccharomyces cerevisiae [8]) | also measured
1 | O=c1c2c(nc3n1Cc1cc4ccccc4nc1-3)CCCC2 | 46% | 3% | – | – | – | – | Inhibition (Saccharomyces cerevisiae [3]): 51%; Inhibition (Saccharomyces cerevisiae [4]): 18%
2 | O=c1c2cccc(O)c2nc2n1Cc1cc3ccccc3nc1-2 | 9% | 0% | – | – | – | – | Inhibition (Saccharomyces cerevisiae [3]): 13%; Inhibition (Saccharomyces cerevisiae [4]): 7%
3 | Cc1ccc2nc3n(c(=O)c2c1)Cc1cc2ccccc2nc1-3 | – | – | 14% | 8% | 49% | 39% | –
4 | O=c1c2ccc(F)cc2nc2n1Cc1cc3ccccc3nc1-2 | 73% | 14% | – | – | – | – | Inhibition (Saccharomyces cerevisiae [9]): 40%; Inhibition (Saccharomyces cerevisiae [10]): 0%
5 | O=c1c2cc(F)c(F)cc2nc2n1Cc1cc3ccccc3nc1-2 | – | – | 0% | 26% | 0% | 53% | –
6 | COc1cccc2c(=O)n3c(nc12)-c1nc2ccccc2cc1C3 [16-METHOXYLUOTONIN A] | – | – | – | – | – | – | Inhibition (Saccharomyces cerevisiae [9]): 2%; Inhibition (Saccharomyces cerevisiae [11]): 0%; Inhibition (Saccharomyces cerevisiae [12]): 35%; Inhibition (Saccharomyces cerevisiae [10]): 47%
7 | CC[C@@]1(O)C(=O)OCc2c1cc1n(c2=O)Cc2cc3ccccc3nc2-1 [CAMPTOTHECIN] | – | – | – | – | – | – | Inhibition (Saccharomyces cerevisiae [13]): 78%; Inhibition (Saccharomyces cerevisiae [14]): 18%; Inhibition (Saccharomyces cerevisiae [15]): 40%; Inhibition (Saccharomyces cerevisiae [16]): 10%; Inhibition (Saccharomyces cerevisiae [17]): 68%; Inhibition (Saccharomyces cerevisiae [18]): 19%
8 | O=c1c2ccccc2nc2n1Cc1cc3ccccc3nc1-2 [LUOTONIN A] | – | – | 36% | 0% | 56% | 35% | Inhibition (Saccharomyces cerevisiae [19]): 23%; Inhibition (Saccharomyces cerevisiae [20]): 0%

— ChEMBL document CHEMBL1147536, “Synthesis and biochemical properties of E-ring modified luotonin A derivatives” (2004)
